Patent US5814627A, “3, 5-disubstituted and 3, 4, 5-trisubstituted 2-isoxazolines and isoxazoles, process for their preparation and their use as pharmaceuticals” (Hoechst Aktienegesellschaft, priority 1994, dated 1998)
Structures can show the parent of a compound that is named as a salt. Where two headings read alike, the source gives them in different places.

Experiments:
adjuvant/arthritis model = assay: Test 6: antiarthritic effect in the adjuvant/arthritis model; assay type: in vivo, rat (Wistar-Lewis); details: Rattus norvegicus, po, 408 h, read-out: Test 6 Paw volume (% inhibition)
[1] = tested on: cyclooxygenase-dependent thrombocyte aggregation; assay: Test 5: Cyclooxygenase-dependent thrombocyte aggregation; assay type: cell-based, human; details: Homo sapiens, 100 μM; arachidonic acid as inducer; read-out: Test 5 residual activity (cyclooxygenase-dependent thrombocyte aggregation), percent of control
Method: TEST 5. Cyclooxygenase-dependent thrombocyte aggregation
Platelet-rich plasma (PRP): to inhibit coagulation, human blood was treated with 1/10 of its volume of 3.8% sodium citrate solution. Centrifugation then takes place at 105×g for 20 minutes and the supernatant (PRP) is removed. 200 μl of PRP were preincubated, at 37° C. for 10 minutes, together with 30 μl of test substance in a PAP4 aggregometer (BioData). The test substance was dissolved in organic solvent and diluted 1:30 with buffer (50 mM TisHCl, pH 8.0; 90 mM NaCl). Aggregation is triggered with 20 μl of inducer. During the aggregation, stirring takes place at 800 rpm. Arachidonic acid, 5 mg/ml, was used as the inducer.
The values in the table show the concentration of the test substance which was employed in μM and, besides this, the residual activity measured in percent based on the control, which was set to be 100%. The interleukin is additionally indicated in test 4.

[2] = tested on: tumor cell line 20-10-5S (hybridoma cell line); assay: Test 8: Inhibition of tumor cell proliferation; assay type: cell-based; details: 48 h + 16 h tritiated thymidine incorporation; 20-10-5S cells
[3] = 50 mg/kg orally, daily for 17 days, rat

| IC50 [2] | SMILES | inhibition in vivo at 50 mg/kg (adjuvant/arthritis model; [3]) | activity at 100 µM [1] | inhibition in vivo at 50 mg/kg (adjuvant/arthritis model) | inhibition in vivo at 25 mg/kg (adjuvant/arthritis model; 25 mg/kg orally, daily for 17 days, rat) |
| --- | --- | --- | --- | --- | --- |
| – | CCCCCCCCCCCCCCCC(=O)O[C@H](C)[C@@H]1CC(c2cc(C(C)(C)C)c(O)c(C(C)(C)C)c2)=NO1 (relative stereo) [Example 81, 1-(3-(4-Hydroxy-3,5-di-tert-butylphenyl)-2-isoxazolin-5-yl)ethyl hexadecanoate (erythro isomer)] | 67% | 100% | – | – |
| 20 µM | CC(C)(C)c1cc(C2=NO[C@H]([C@H](O)CO)C2)cc(C(C)(C)C)c1O (relative stereo) [Example 89, 3-(3,5-Di-tert-butyl-4-hydroxyphenyl)-5-(1,2-dihydroxyethyl)-2-isoxazoline,rac. erythro isomer] | 36% | – | – | – |
| 30 µM | CC(C)(C)c1cc(C2=NO[C@H]([C@@H](O)CO)C2)cc(C(C)(C)C)c1O (relative stereo) [Example 90, 3-(3,5-Di-tert-butyl-4-hydroxyphenyl)-5-(1,2-dihydroxyethyl)-2-isoxazoline,rac. threo isomer] | 36% | – | – | – |
| 10 µM | CC(C)(C)c1cc(C2=NOC3(CC3)C2)cc(C(C)(C)C)c1O [Example 12] | 82% | – | – | – |
| 8 to 15 µM | CC(O)CC1CC(c2cc(C(C)(C)C)c(O)c(C(C)(C)C)c2)=NO1 (centres unmarked) [Example 15] | 60% | – | – | – |
| < 5 µM | CC(C)(C)c1cc(-c2cc(CCCCO)on2)cc(C(C)(C)C)c1O [Example 27] | 71% | 97% | – | – |
| 5 to 10 µM | CC(O)Cc1cc(-c2cc(C(C)(C)C)c(O)c(C(C)(C)C)c2)no1 (centres unmarked) [Example 30] | 63% | – | – | – |
| < 5 µM | CC(C)(C)c1cc(-c2cc(C=O)on2)cc(C(C)(C)C)c1O [Example 66] | – | – | – | 59% |
| < 5 µM | CC(C)(C)c1cc(C2=NOC3(CCC3)C2)cc(C(C)(C)C)c1O [Example 67] | 53% | – | – | – |
| 5 to 10 µM | CC(C)(C)c1cc(C2=NOC(C(C)(C)O)C2)cc(C(C)(C)C)c1O (centres unmarked) [Example 69] | 83% | – | – | – |

| SMILES | IC50 [2] | inhibition in vivo at 50 mg/kg (adjuvant/arthritis model; [3]) | activity at 100 µM [1] | inhibition in vivo at 50 mg/kg (adjuvant/arthritis model) | inhibition in vivo at 25 mg/kg (adjuvant/arthritis model; 25 mg/kg orally, daily for 17 days, rat) |
| --- | --- | --- | --- | --- | --- |
| CC(C)(C)c1cc(-c2cc(CNC(=O)[C@@H](N)Cc3ccccc3)on2)cc(C(C)(C)C)c1O [Example 55, L-Phenylalanyl-N-(3-(4-hydroxy-3,5-di-tert-butylphenyl)-isoxazol-5-ylmethyl)amide hydrochloride] | < 5 µM | – | – | 47% | – |
